Test results taken from patent US11306095B2 (EAST CHINA UNIVERSITY OF SCIENCE AND TECHNOLOGY, priority 2015, dated 2022).
In brackets after ≈: the same amount, converted by molar mass.

Assays:
Wild type EGFR = target: T1, Wild type EGFR (Homo sapiens, UniProt P00533); experiment: Kinase activity test (FRET), wild type EGFR; assay type: biochemical; details: wild type EGFR; read-out: Inhibitory activity of EGFR on kinase (IC50, nM) WT
T1 construct: purchased Invitrogen PV3872
Experimental: (§1) EGFR-TK catalyses transfer of one phosphate group of adenosine triphosphate (ATP) to polypeptide substrate, poly(Glu, Tyr)4:1, which is labeled with two fluorescent groups coumarin and fluorescein.
(§2) 2.5 μL of Test Compounds, 5 μL Kinase/Peptide Substrate Mixture, 2.5 μL ATP Solution were added into a 384-well plate, and the 10 μL of reaction system was shaken for 30 s and incubated at room temperature for 1 h. 5 μL of Development Solution was added and the 15 μL of reaction system was shaken for 30 s, and incubated at room temperature for 1 h. […] The inhibitory rates of the compounds at 7 concentration gradients were determined and the IC50 value for each compound was calculated by Origin 8.0 fitting curve.
(§3) 10 concentration gradients from 5.1×10^−11 mol/L to 1.0×10^−6 mol/L were set for all compounds to be tested.
(§4) Compounds were diluted in DMSO for three times from 5.1×10^−9 M to 1×10^−4 M. 4 μL of the compound was dissolved in 96 μL of water to obtain a 4× compound solution. […] The 10 μL kinase reaction consisted of 2.5 μL compound solution, 5 μL kinase/peptide mix, 2.5 μL ATP solution. […] 5 μL of phosphorylated peptide solution, instead of the kinase/peptide mixture, was used as a 100% phosphorylation control. […] The plates were thoroughly mixed and incubated at room temperature for 1.5 hours. 5 μL of Development Solution was added into each well and then incubated for another 1 hour at room temperature, unphosphorylated peptides were cleaved during this period. Finally, 5 μL Stop Reagent was added to quench the reaction. The plates were measured with EnVision Multilabel Reader (Perkin Elmer). The experimental data were calculated using GraphPad Prism version 4.0. Each experiment was repeated more than 3 times.

EGFR-L858R/T790M = target: T2, EGFR-L858R/T790M (Homo sapiens, UniProt P00533, L858R/T790M); experiment: Kinase activity test (FRET), EGFR T790M/L858R; assay type: biochemical; details: EGFR T790M/L858R; read-out: Inhibitory activity of EGFR on kinase (IC50, nM) T790M/L858R
T2 construct: purchased Invitrogen PV4879
Experimental: as §1, §2, §3, §4

[1] = system: H1975 cells (EGFR L858R/T790M); experiment: Inhibitory activity on cell proliferation, H1975; assay type: cell-based; details: Homo sapiens, NCI-H1975; H1975, 72 hours; read-out: Inhibitory activity on proliferation of cells (IC50, μM) H1975
Experimental: (§5) Cell proliferation activity was assessed by MTS assay. Cells were exposed to processing conditions for 72 hours and the number of cells used in each experiment for each cell line was adjusted based on absorbance values (absorbance values at 490 nm, 1.3-2.2). Six concentration gradients (0.1 nM-10 μM) were set for the compounds to be tested, wherein at least 6 sets of parallel controls for each concentration were used.
(§6) H1975, A431 cells were cultured in corresponding media, and cells were passaged at least twice after resuscitation and then used for experiments. Cells at Log phase were trypsinized and resuspended in culture medium. H1975 (1000 cells per well), A431 (2000 cells per well) were seeded in 96-well plates in a volume of 100 μL; and 6 sets of parallel controls and 7 columns were set. The plate was placed in a 37° C. 5% CO2 incubator overnight. Compounds were dissolved in DMSO to a concentration of […], and then the concentration was gradually diluted to 10 μM, 1 μM, 0.1 μM, 0.01 μM, 0.001 μM, 0.0001 μM per liter, respectively. 2 μL of the compound solution was added to 998 μL of medium, and the mixture was thoroughly mixed. 100 μL of the mixture was added to a 96-well plate. […] After culturing for 68 hours, 20 μL of MTT (5 mg/mL) was added. After 4 hours, the supernatant was discarded and 150 μL of DMSO was added. After shaking for 10 minutes, the plate was read with Synergy HT (Bio TeK) (OD490). Data were calculated using GraphPad Prism version 4.0 and IC50 values were obtained using a non-linear regression model of dose response curve.

[2] = system: A431 cells (EGFR wild type); experiment: Inhibitory activity on cell proliferation, A431; assay type: cell-based; details: Homo sapiens, A-431; A431, 72 hours; read-out: Inhibitory activity on proliferation of cells (IC50, μM) A431
Experimental: as §5, §6

[3] = Determination of solubility in water (PBS 20 mM, pH 6.8); assay type: physicochemical; details: PBS buffer, aqueous buffer, thermodynamic from solid; pH 6.8, 20 mM PBS; read-out: Solubility (pH 6.8, g/mL)
Experimental: The suspension was filtered through a 0.22 μm PVDF filter, and then diluted to an appropriate concentration with methanol (v=50%) and PBS (v=50%), and the absorbance was measured by a UV spectrophotometer. About 3 mg of compound was accurately weighed, and methanol was added for preparing a stock solution of 1 mg/mL. The above stock solution was taken and prepared into a solution at concentrations of 0.05, 0.04, 0.03, 0.02 and 0.01 mg/mL, respectively, PBS solution (v=50%) was added and the absorbance value was measured. Concentration c (mg/mL) as horizontal ordinate vs absorbance A as longitudinal coordinate was plotted, and a line was fitted for obtaining a standard curve (correlation coefficient greater than 0.998). The solubility of a compound in water was calculated from the standard curve.

T1 sequence (P00533 25-1210): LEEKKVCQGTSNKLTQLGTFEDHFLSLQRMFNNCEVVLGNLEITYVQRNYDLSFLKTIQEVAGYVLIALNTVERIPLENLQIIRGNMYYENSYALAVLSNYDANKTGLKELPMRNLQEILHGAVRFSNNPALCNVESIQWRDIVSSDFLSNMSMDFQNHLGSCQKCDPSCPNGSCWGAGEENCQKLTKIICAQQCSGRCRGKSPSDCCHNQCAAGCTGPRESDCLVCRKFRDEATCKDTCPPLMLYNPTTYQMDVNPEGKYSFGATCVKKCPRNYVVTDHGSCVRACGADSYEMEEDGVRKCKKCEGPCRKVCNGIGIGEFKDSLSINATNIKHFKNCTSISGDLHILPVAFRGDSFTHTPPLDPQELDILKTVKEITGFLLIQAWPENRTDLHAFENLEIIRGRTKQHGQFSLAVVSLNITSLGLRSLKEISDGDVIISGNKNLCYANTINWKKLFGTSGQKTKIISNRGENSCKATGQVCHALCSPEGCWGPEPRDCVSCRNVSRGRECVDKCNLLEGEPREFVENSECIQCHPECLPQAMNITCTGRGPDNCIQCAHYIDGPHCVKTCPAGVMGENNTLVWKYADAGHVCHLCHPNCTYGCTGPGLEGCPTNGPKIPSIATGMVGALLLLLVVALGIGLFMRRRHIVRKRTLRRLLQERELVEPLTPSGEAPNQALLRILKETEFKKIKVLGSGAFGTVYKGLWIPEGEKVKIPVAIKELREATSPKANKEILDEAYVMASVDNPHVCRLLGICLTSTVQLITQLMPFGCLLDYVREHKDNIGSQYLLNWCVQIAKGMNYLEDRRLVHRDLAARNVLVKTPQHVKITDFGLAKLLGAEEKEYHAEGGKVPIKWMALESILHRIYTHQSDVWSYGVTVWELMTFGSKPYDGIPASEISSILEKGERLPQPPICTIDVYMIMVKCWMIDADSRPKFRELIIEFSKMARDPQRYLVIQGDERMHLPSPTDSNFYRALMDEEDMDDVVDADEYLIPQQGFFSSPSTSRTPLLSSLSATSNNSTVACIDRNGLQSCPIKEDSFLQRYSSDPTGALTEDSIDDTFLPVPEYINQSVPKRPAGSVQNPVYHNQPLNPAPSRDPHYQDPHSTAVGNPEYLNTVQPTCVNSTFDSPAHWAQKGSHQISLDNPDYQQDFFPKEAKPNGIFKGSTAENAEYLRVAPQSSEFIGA
T2 sequence (P00533 25-1210 T790M/L858R): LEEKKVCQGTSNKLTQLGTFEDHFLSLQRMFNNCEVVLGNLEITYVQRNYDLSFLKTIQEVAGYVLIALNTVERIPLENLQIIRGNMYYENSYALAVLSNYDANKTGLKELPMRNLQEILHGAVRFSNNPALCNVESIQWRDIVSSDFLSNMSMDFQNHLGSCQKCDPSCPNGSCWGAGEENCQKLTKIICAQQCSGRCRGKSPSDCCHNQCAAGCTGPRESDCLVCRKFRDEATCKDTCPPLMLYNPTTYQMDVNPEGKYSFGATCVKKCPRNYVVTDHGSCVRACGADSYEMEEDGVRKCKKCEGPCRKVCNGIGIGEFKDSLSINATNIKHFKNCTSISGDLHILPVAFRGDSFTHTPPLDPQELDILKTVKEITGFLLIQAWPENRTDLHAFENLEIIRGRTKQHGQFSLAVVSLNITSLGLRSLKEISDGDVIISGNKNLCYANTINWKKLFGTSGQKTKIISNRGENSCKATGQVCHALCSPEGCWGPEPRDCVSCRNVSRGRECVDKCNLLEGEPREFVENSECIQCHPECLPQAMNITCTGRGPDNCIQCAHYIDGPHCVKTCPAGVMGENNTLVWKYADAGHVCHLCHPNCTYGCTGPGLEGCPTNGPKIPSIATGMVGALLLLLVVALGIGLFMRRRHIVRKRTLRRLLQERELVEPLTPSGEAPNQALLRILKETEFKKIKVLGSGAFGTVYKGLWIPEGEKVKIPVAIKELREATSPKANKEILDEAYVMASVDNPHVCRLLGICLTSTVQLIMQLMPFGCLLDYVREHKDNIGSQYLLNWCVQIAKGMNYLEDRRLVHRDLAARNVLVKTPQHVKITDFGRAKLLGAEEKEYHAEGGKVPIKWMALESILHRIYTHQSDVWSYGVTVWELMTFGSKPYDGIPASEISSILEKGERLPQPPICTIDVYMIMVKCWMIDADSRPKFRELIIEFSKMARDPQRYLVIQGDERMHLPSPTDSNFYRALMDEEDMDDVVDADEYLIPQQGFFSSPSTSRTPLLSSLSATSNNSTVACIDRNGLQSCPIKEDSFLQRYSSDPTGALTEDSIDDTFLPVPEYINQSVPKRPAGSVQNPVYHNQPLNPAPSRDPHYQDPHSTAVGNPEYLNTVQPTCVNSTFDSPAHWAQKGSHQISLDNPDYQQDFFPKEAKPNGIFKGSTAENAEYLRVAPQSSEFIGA

Row | SMILES | IC50 (Wild type EGFR) [nM] | IC50 (EGFR-L858R/T790M) [nM] | IC50 [1] [µM] | IC50 [2] [µM] | solubility [3] [µg/mL] | melting point [°C]
1 | COc1cc(N2CCN(C)CC2)ccc1Nc1ncc2ncc(=O)n(C3CCN(C(=O)/C=C/CN(C)C)CC3)c2n1 [Compound 30, (E)-8-(1-(4-(dimethylamino)-2-butenoyl)-4-piperidinyl)-2-((2-methoxy-4-(4-methyl-1-piperazinyl)phenyl)amino)-7(8H)pteridinone] | > 1000 | > 1000 | 8.69 | > 10 | > 10 | 157.3 to 157.6
2 | COc1cc(N2CCN(C)CC2)ccc1Nc1ncc2nc(-c3ccccc3)c(=O)n([C@H]3CCN(C(=O)/C=C/CN(C)C)C3)c2n1 [Compound 31] | 522 | 9 | 2.16 | > 10 | 63.3 (≈ 101 µM) | 253.1 to 254
3 | Cc1cc(Nc2ncc3nc(C(C)C)c(=O)n([C@H]4CCN(C(=O)/C=C/CN(C)C)C4)c3n2)ccc1N1CCN(C)CC1 [Compound 36, (S,E)-8-(1-(4-(dimethylamino)-2-butenoyl)3-pyrrolidinyl)-2-((3-methyl-4-(4-methyl-1-piperazinyl)phenyl)amino)-6-isopropyl-7(8H)pteridinone] | > 1000 | > 1000 | 2.2 | 9.6 | 737 (≈ 1280 µM) | 159.9 to 160.7
4 | C=CC(=O)N1CC[C@H](n2c(=O)c(-c3ccccc3)nc3cnc(Nc4ccc(N(C)CCN(C)C)c(C)c4)nc32)C1 [Compound 40] | > 10000 | 73.1 | 1.05 | 1.38 | > 10 | 256.1 to 256.4
5 | C=CC(=O)N1CC[C@H](n2c(=O)c(-c3ccccc3)nc3cnc(Nc4ccc(N(C)CCN(C)C)c(OC)c4)nc32)C1 [Compound 41] | 5350 | 38.6 | 1.19 | 1.26 | > 10 | 260 to 260.2
6 | C=CC(=O)Nc1cccc(-n2c(=O)c(-c3ccccc3)nc3cnc(Nc4ccc(N5CCN(C)CC5)c(OC)c4)nc32)c1 [Compound 42, N-(3-(2-((3-methoxy-4-(4-methyl-1-piperazinyl)phenyl)amino)-7-oxo-6-phenyl-8(7H)pteridinyl)phenyl)acrylamide] | 528 | 47.5 | 0.003 | 0.328 | < 10 | 264.7 to 265.5
7 | C=CC(=O)N1CCC[C@@H](n2c(=O)c(-c3ccccc3)nc3cnc(Nc4ccc(N5CCN(C)CC5)cc4OC)nc32)C1 [Compound 45, (R)-8-(1-acryloyl-3-piperidinyl)-2-((2-methoxy-4-(4-methyl-1-piperazinyl)phenyl)amino)-6-phenyl-7(8H)pteridinone] | > 1000 | > 1000 | 1.78 | 4.28 | < 10 | 134.9 to 135.1
8 | C=CC(=O)N1CCC[C@@H](n2c(=O)c(C3CCCCC3)nc3cnc(Nc4ccc(N5CCN(C)CC5)cc4OC)nc32)C1 [Compound 46, (R)-8-(1-acryloyl-3-piperidinyl)-6-cyclohexyl-2-((2-methoxy-4-(4-methyl-1-piperazinyl)phenyl)amino)-7(8H)pteridinone] | > 10000 | 13.3 | 2.16 | 2.39 | 43.2 (≈ 73.6 µM) | 94.2 to 94.7

Stronger by IC50 (Wild type EGFR), values ahead:

Row | IC50 (Wild type EGFR) [nM] | IC50 (EGFR-L858R/T790M) [nM] | IC50 [1] [µM] | IC50 [2] [µM] | solubility [3] [µg/mL] | melting point [°C] | SMILES
9 | 1.3 | 7.1 | 0.033 | 2.75 | < 10 | 249 to 249.5 | C=CC(=O)Nc1cccc(-n2c(=O)c(C(C)C)nc3cnc(Nc4ccc(N5CCN(C)CC5)c(OC)c4)nc32)c1 [Compound 32, N-(3-(6-isopropyl-2-((3-methoxy-4-(4-methyl-1-piperazinyl)phenyl)amino)-7-oxo-8(7H)pteridinyl)phenyl)acrylamide]
10 | 33 | 1.3 | 0.23 | 3.68 | 24.5 (≈ 42.2 µM) | > 300 | C=CC(=O)Nc1cccc(-n2c(=O)c(C(F)(F)F)nc3cnc(Nc4ccc(N5CCN(C)CC5)c(OC)c4)nc32)c1 [Compound 33, N-(3-(2-((3-methoxy-4-(4-methyl-1-piperazinyl)phenyl)amino)-7-oxo-6-(trifluoromethyl)-8(7H)-pteridinyl)phenyl)acrylamide]
11 | 86.7 | 896 | 0.831 | > 10 | 223 (≈ 470 µM) | 215.5 to 215.7 | C=CC(=O)N1CC[C@H](n2c(=O)cnc3cnc(Nc4ccc(N5CCN(C)CC5)c(C)c4)nc32)C1 [Compound 34, (S)-8-(1-acryloyl-3-pyrrolidinyl)-2-((3-methyl-4-(4-methyl-1-piperazinyl)phenyl)amino)-7(8H)pteridinone]
12 | 20.1 | 17.5 | 0.378 | 0.225 | 63.3 (≈ 112 µM) | 208.3 to 208.8 | C=CC(=O)N1CC[C@H](n2c(=O)c(-c3ccccc3)nc3cnc(Nc4ccc(N5CCN(C)CC5)c(OC)c4)nc32)C1 [Compound 35, (S)-8-(1-acryloyl-30pyrrolidinyl)-2-((3-methoxy-4(4-methyl-1-piperazinyl)phenyl)amino)-6-phenyl-7(8H)pteridinone]
13 | 2.8 | 0.6 | 0.165 | 2.35 | < 10 | 292.9 to 293.4 | C=CC(=O)Nc1cccc(-n2c(=O)c(-c3ccccc3)nc3cnc(Nc4cc(C)c(N5CCN(C)CC5)cc4OC)nc32)c1 [Compound 38, N-(3-(2-((2-methoxy-5-methyl-4-(4-methyl-1-piperazinyl)phenyl)amino)-7-oxo-6-phenyl-8(7H)pteridinonyl)phenyl)acrylamide]
14 | 130 | 82.2 | 0.572 | 3.84 | < 10 | 227.5 to 228.5 | C=CC(=O)Nc1cccc(-n2c(=O)c(C(C)C)nc3cnc(Nc4cc(C)c(N5CCN(C)CC5)cc4OC)nc32)c1 [Compound 39, N-(3-(6-isopropyl-2-((2-methoxy-5-methyl-4-(4-methyl-1-piperazinyl)phenyl)amino)-7-oxo-8(7H)pteridinyl)phenyl)acrylamide]
15 | 343 | > 1000 | 1.56 | 1.81 | < 10 | 208.3 to 209.3 | C=CC(=O)N1CCC[C@H](Cn2c(=O)c(-c3ccccc3)nc3cnc(Nc4ccc(N5CCN(C)CC5)cc4OC)nc32)C1 [Compound 44]
